Source: patent US10913781B2, “Pepducin design and use” (Tufts Medical Center, Inc., priority 2011, dated 2021)

Key:
Format in all cases: cell-based
[1] = molecular target: PAR2 (Mus musculus, UniProt P55086); assay: Mouse neutrophil chemotaxis to trypsin; conditions: 30 nM trypsin
Method: (A) Human neutrophils (n=4 normal volunteers) were analyzed for surface expression of human PAR1, PAR2, and PAR4 by flow cytometry with PAR-specific antibodies. […] Chemotaxis index is the ratio of directed versus random migration over 30 min through a 5-μm pore filter.
The ability of some pepducin embodiments of the invention to antagonize PAR2-dependent activity of human neutrophils was tested. Neutrophils were isolated from the peripheral blood of healthy human volunteers and found to express high levels of surface PAR2 and PAR4 and lower apparent levels of PAR1 by flow cytometry (FIG. 3A). […] As human PAR2 shares 85% identity with mouse PAR2 and the mouse i3 loop retains all of the critical pharmacophores identified in the human PAR2 i3 loop, cross-species inhibition with mouse cells was tested.

[2] = molecular target: T1, PAR1 (Homo sapiens, UniProt P25116); assay: PAR1-dependent human platelet aggregation (SFLLRN); set-up: endogenous in cells; conditions: 2.5 μM SFLLRN; P2pal-18S 1 μM or 5 μM
T1 sequence (P25116 22-425): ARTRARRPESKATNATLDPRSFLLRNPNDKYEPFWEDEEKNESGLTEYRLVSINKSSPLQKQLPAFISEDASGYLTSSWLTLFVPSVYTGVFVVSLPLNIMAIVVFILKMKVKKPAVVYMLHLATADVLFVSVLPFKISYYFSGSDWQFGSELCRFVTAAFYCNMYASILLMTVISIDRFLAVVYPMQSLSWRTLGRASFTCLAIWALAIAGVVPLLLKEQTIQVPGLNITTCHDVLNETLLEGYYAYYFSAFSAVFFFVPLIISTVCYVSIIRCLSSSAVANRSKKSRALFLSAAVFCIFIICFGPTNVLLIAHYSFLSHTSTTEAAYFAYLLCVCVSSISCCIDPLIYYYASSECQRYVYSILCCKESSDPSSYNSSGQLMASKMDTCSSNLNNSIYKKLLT
Method: FIG. 5 illustrates: (A) PAR1-dependent human platelet aggregation is not affected by P2pal-18S. Gel-filtered platelets were incubated with 2.5 μM SFLLRN (SEQ ID NO:1) to induce PAR1-dependent platelet aggregation. […] Error bars represent mean±SD. […] Cells were lifted and incubated in PBS/0.4% BSA for 30 min at 25° C. with 0.5-30 μM P2pal-18S or P2pal-14GQ. Propidium iodide (PI) was added directly to the cells and after a 15 min incubation, PI uptake was quantified by flow cytometry. […] Error bars represent ±SEM.

[3] = molecular target: T2, PAR4 (Homo sapiens, UniProt Q96RI0); assay: [3H]-InsP formation in COS7 cells transfected with PAR4; set-up: expressed in transfected cells; host or cells: COS7; conditions: 100 μM AYPGKF, 30 min
T2 sequence (Q96RI0 18-385): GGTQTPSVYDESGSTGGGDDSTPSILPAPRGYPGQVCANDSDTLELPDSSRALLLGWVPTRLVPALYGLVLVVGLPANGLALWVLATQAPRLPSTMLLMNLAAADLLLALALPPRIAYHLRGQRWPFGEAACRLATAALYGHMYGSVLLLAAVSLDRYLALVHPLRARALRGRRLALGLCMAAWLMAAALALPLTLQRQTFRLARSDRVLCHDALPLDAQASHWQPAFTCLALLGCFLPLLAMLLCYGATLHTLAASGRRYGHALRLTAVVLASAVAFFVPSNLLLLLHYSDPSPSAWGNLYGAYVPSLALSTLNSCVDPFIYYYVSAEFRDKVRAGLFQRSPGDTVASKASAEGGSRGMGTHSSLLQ
Method: (A) PAR2 antagonist pepducins P2pal-18S and P2pal-14GQ inhibit calcium flux induced by PAR2 (SLIGRL) (SEQ ID NO:4) but not PAR1 (TFLLRN) (SEQ ID NO:2) agonists. SW620 cells were stably transfected with PAR1 and pretreated for 1 min with various concentrations of P2pal-18S or P2pal-14GQ and then stimulated with 30 μM PAR agonist. […] Cells were stimulated with 1 μM TFLLRN (SEQ ID NO:2), 1 μM SLIGRL (SEQ ID NO:4) or 100 μM AYPGKF (SEQ ID NO:5) and [^3H]-InsP formation measured over 30 min. (C) SW620 cells were treated with the indicated concentrations of P2pal-18S or P2pal-14GQ in the upper well of an 8-μm pore Boyden chamber and allowed to migrate for 18 h towards 10 μM of the PAR2 specific agonist SLIGRL in the lower chamber. The migration to RPMI/0.1% FBS represents random migration. (D) Migration of HEK cells transiently transfected with PAR2 (wild-type, WT), or PAR2-R36A/PAR2-RQ toward chemotactic gradients of 30 nM trypsin in the absence or presence of the indicated concentration of P2pal-18S for 18 h in a transwell apparatus ([…]). Data (n=2-4) are mean±SEM. *, P<0.05 and **, P<0.005.

PAR2, sequence (P55086 26-399): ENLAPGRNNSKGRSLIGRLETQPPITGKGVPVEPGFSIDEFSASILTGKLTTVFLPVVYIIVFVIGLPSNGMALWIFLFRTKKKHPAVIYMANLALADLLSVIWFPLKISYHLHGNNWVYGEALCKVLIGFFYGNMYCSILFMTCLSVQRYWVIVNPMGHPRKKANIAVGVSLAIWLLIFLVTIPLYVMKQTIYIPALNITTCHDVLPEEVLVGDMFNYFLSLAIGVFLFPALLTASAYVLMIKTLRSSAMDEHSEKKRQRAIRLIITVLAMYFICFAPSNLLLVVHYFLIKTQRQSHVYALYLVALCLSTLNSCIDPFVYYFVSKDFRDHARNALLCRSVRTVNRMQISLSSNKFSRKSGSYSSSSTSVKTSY

Inhibition of mouse neutrophil migration [1]: completely inhibited | Effect on PAR1-dependent platelet aggregation [2]: had no effect | Inhibition of InsP signaling from PAR4 [3]: do not inhibit
SMILES: CCCCCCCCCCCCCCCC(=O)N[C@@H](CCCNC(=N)N)C(=O)N[C@@H](CO)C(=O)N[C@@H](CO)C(=O)N[C@@H](C)C(=O)N[C@@H](CCSC)C(=O)N[C@@H](CC(=O)O)C(=O)N[C@@H](CCC(=O)O)C(=O)N[C@@H](CC(N)=O)C(=O)N[C@@H](CO)C(=O)N[C@@H](CCC(=O)O)C(=O)N[C@@H](CCCCN)C(=O)N[C@@H](CCCCN)C(=O)N[C@@H](CCCNC(=N)N)C(=O)N[C@@H](CCCCN)C(=O)N[C@@H](CO)C(=O)N[C@@H](C)C(=O)N[C@H](C(=O)N[C@@H](CCCCN)C(N)=O)[C@@H](C)CC [P2pal-18S]
